The subject of one experiment is cortical infarct volumes. Conditions: cited from earlier work.
In the next experiment the test system is global ischemia. Conditions: rat common carotid arteries model; cited from earlier work.
A further experiment deals with Male NIH Swiss mice. The experiment in a line: Maximum Electro Shock (MES) Seizure Test. It counts as in vivo. The conditions noted are these: ip, 0.5 hours. As for the experimental part: The extent of protection by a test compound in a seizure model is tested as described by Rogawski et al. (Epilepsy Research, 15:179-184, 1993). Male NIH Swiss mice (25-30 g) are injected ip with the test drug. The mice are subjected to a 0.2 sec, 60 Hz, 50 mA electrical stimulus delivered with corneal electrodes wetted with 0.9% saline at 15-30 min post dosing. Animals failing to show tonic hind limb extension are scored as protected. Compounds may be selected which are active in this model.

Another experiment relates to Mice. The experiment is described as follows: Subcutaneous Metrazol (scMET) Seizure Test. The format is in vivo. Conditions: 30 mg/kg, 0.5 hr, metrazol 90 mg/kg sc. As for the experimental part: This test is to determine the extent of protection by a test compound in a seizure model. The method used is that of Chen et at. (Proc. Soc. Exp. Biol. Med., 87:334, 1954). Mice are randomly assigned to vehicle or treatment groups of 3-10 animals per group and then dosed accordingly. Metrazol (pentylenetetrazol) 90 mg/kg is administered subcutaneously (sc) at different time points (0.25, 0.5, 1, 2, 4 hr) after the treatment or control groups. The mice individually housed in clear runs and observed for the presence or absence of clonic seizure activity (>5 s duration) for 30 min after metrazol dosing. A compound is considered active if no seizure is observed. Data is analyzed using a quantal measure (protection/number tested).

The next experiment has as its system AMPA receptor. The experiment is described as follows: AMPA receptor inhibition, whole-cell patch clamp, KA-stimulated currents in primary cultures of rat neocortex. It counts as cell-based. Conditions: rat cortical neurons; for AMPA % INHIBITION (10 μM drug): KA 50 μM; for IC50: 5 doses. As for the experimental part:
The potency of Examples 1-5, 7, 11, 17 and 31 listed in Table 1, for drug inhibition of the AMPA receptor was tested using the whole-cell patch clamp technique on primary cultures of rat neocortex. The general procedure for stimulating AMPA-receptor mediated currents with KA and for the measurement of current inhibition is based on that used by Donevan and Rogawski (Neuron, 10:51-59, 1993) for 2,3-benzodiazepines.
Standard extracellular bath solutions and intracellular pipette solutions are used as described in detail by Hussy and coworkers (J. Physiol. (Lond.), 481.2:311-323,1994). The drug application system is designed to allow rapid switching between 7 different reservoirs containing either control bath solution, kainic acid (50 μM), or kainic acid (50 μM) plus antagonist (10 μM). Each recording is begun with a control response to KA alone.
Following the establishment of a 2-3 sec duration steady baseline, bathing solution is switched to one containing KA plus antagonist for an additional 2-3 sec period. Alternatively, 5 different doses of a single compound are tested for the determination of the antagonist IC50. The results of the assay of Examples 1-5, 7, 11, 17 and 31 are listed below in Table 3, which illustrates AMPA receptor inhibition in rat cortical neurons. The compounds tested all were useful as antagonists of non-NMDA EAA receptors.
A general note: The patch-clamp technique gives a direct electrical read-out from membranes.

Like-named read-outs stand apart in the source and are kept apart here.

With `CC1=NN=C(c2ccc(N)cc2)c2cc3c(cc2C1)OCO3` [GYKI 52466], the “reduction of cortical infarct volumes” value with cortical infarct volumes (delayed for one hour) is on record as 48%; in the experiment on cortical infarct volumes (given continuously for 2 hours just after occlusion) it was 68%. The “effectiveness in global ischemia compared with NBQX” value in the experiment on global ischemia was “as effective as the glutamate site competitive antagonist NBQX”.
`CCCNC(=O)N1N=C(c2ccc(N)cc2)c2cc(OC)c(OC)cc2C1C` (stereo not drawn) [Example 133]: the “MES Score (protected/no. tested)” value in the experiment on Male NIH Swiss mice (30 mg/kg) is listed as 1/3. Besides, the “scMET Score (protect./no. tested)” value with Mice was 1/5.
In the case of `CC(=O)N1N=C(c2ccc(N)cc2)c2cc3c(cc2C1C)OCO3` (stereo not drawn) [Example 17], the “AMPA % INHIBITION (10 μM drug)” value in the experiment with AMPA receptor came out at 20%.
On to `CCCCNC(=O)N1N=C(c2ccc(N)cc2)c2cc3c(cc2C1C)OCO3` (stereo not drawn) [Example 5, 4-(4-Aminophenyl)-1,2-dihydro-1-methyl-2-n-butylcarbamoyl-6,7-methylenedioxyphthalazine], for which, in the experiment on AMPA receptor, the “AMPA % INHIBITION (10 μM drug)” value was found to be 86% and the IC50 turned out to be 1.8 µM.
On the same counts, the results for `CC1c2cc3c(cc2C(c2ccc(N)cc2)=NN1C(=O)NC(C)(C)C)OCO3` (stereo not drawn) [Example 7] are 70% and 5.4 µM.
`CC(C)NC(=O)N1N=C(c2ccc(N)cc2)c2cc3c(cc2C1C)OCO3` (stereo not drawn) [Example 4, 4-(4-Aminophenyl)-1,2-dihydro-1-methyl-2-isopropylcarbamoyl-6,7-methylendioxyphthalazine]: in the experiment with AMPA receptor, the “AMPA % INHIBITION (10 μM drug)” value was 45%.
Consider `CCC1c2cc3c(cc2C(c2ccc(N)cc2)=NN1C(=O)NC)OCO3` (stereo not drawn) [Example 11, 4-(4-Aminophenyl)-1,2-dihydro-1-ethyl-2-methylcarbamoyl-6,7-methylendioxyphthalazine], for which the “AMPA % INHIBITION (10 μM drug)” value in the experiment with AMPA receptor worked out at 36%.
The same measure, in the same setting: with `CC1c2cc3c(cc2C(c2ccc(N)cc2)=NN1C(=O)N(C)C)OCO3` (stereo not drawn) [Example 31, 4-(4-Aminophenyl)-1,2-dihydro-2-(N,N-dimethylcarbamoyl)-1-methyl-6,7-methylendioxyphthalazine] the figure was 33%.
`CCCNC(=O)N1N=C(c2ccc(N)cc2)c2cc3c(cc2C1C)OCO3` (stereo not drawn) [Example 3, 4-(4-Aminophenyl)-1,2-dihydro-1-methyl-2-propylcarbamoyl-6,7-methylendioxyphthalazine]: in the experiment on Male NIH Swiss mice (31 mg/kg), the “MES Score (protected/no. tested)” value is reported as 5/8. Moreover, in the experiment with AMPA receptor, the “AMPA % INHIBITION (10 μM drug)” value is given as 80% and the IC50 came to 2.8 µM.
Consider `CNC(=O)N1N=C(c2ccc(N)cc2)c2cc3c(cc2C1C)OCO3` (stereo not drawn) [Example 1, 4-(4-Aminophenyl)-1,2-dihydro-1-methyl-2-(N"-methylcarbamoyl)-6,7-methylendioxyphthalazine], for which, in the experiment on AMPA receptor, the “AMPA % INHIBITION (10 μM drug)” value is 20% and half-maximal inhibition (IC50) required 23 µM.
For `CCNC(=O)N1N=C(c2ccc(N)cc2)c2cc3c(cc2C1C)OCO3` (stereo not drawn) [Example 2, 4-(4-Aminophenyl)-1,2-dihydro-2-(N-ethylcarbamoyl)-1-methyl-6,7-methylendioxyphthalazine], the “MES Score (protected/no. tested)” value in the experiment on Male NIH Swiss mice (30 mg/kg) is given as 3/3. Moreover, in the experiment on AMPA receptor, the “AMPA % INHIBITION (10 μM drug)” value is on record as 55% and the IC50 is 7.2 µM.

What is called IC50 is the concentration that inhibits the measured activity by half.

The values are drawn from patent US5716956A, “Dihydrophthalazine antagonists of excitatory amino acid receptors” (Bearsden Bearsden Bio, Inc., priority 1996, dated 1998).
